Tests used:
PI3K [1] = assay: Western blot of Akt phosphorylation in TGFβ1-stimulated human IPF fibroblasts; type: cell-based; settings: 3, 9, 27 or 81 min incubation
Description: After replacing the medium with inhibitor-free medium, the cells were cultured for an additional 22 hours, lysed with phosphatase inhibitor containing cell lysis solution, and analyzed for the indicated proteins by Western blotting (n=3).
After an additional 24-hour incubation, cells were lysed and the indicated proteins were analyzed by Western blotting (n=3).
Random/zed shRNA (shCTL) served as a control (n=2).
FIGS. 8A-8B are representative Western blots showing that FAP-targeted PI-3 Kinase inhibitor (FAPL-PI3Ki1) suppresses phosphorylation of Akt in IPF fibroblasts.
Firstly, primary lung fibroblasts from an IPF patient were stimulated for 24 h with TGFβ1 (to activate them to a FAP-expressing state) and then incubated for 2 h with increasing concentrations of FAPL-PI3Ki1, in the presence or absence of 100-fold excess FAPL to block unoccupied FAP sites.
Secondly, IPF lung fibroblasts were stimulated with TGFβ1 and then incubated for different durations with either FAPL-targeted or nontargeted PI3Ki1, followed by replacement of the culture media with inhibitor-free media (FIG. 7B and FIGS. 8A-8B). The anticipation was that FAP-targeted PI3Ki1 would be retained by FAP on FAP-expressing cells during short incubation times, whereas nontargeted PI3Ki1would not be captured by FAP and would subsequently be washed away when the media was changed. […]

[2] = system: TGFβ1-stimulated HLF cells; assay: Collagen synthesis (Col.1/GAPDH) in TGFβ1-stimulated HLF cells; type: cell-based; settings: Homo sapiens, TGFβ1 10 ng/mL, 24 h, read-out: IC50 of suppression of collagen synthesis
Description: (§1) Lysates were collected and analyzed for the indicated proteins by Western blotting, wherein pAkt (S473) is phosphorylated protein kinase B, Akt is protein kinase B, Col.1 is collagen 1, αSMA is α-smooth muscle actin, pSMAD2 is phosphor-SMAD2 kinase, SMAD2 is mothers against decapentaplegic homolog 2, and GAPDH is glyceraldehyde 3-phosphate dehydrogenase.
(§2) To determine whether the nontargeted version of PI3Ki1 might enter human lung fibroblasts and inhibit PI3K activity, HLF-FAP cells were incubated for 24 h with either omipalisib or PI3Ki1 and then the impact on TGFβ1 stimulation, including phosphorylation of Akt, collagen synthesis, contraction of a collagen gel, and apoptosis of myofibroblasts were examined. […] Moreover, nontargeted PI3Ki1suppressed collagen synthesis with better potency than omipalisib, displaying an IC50˜10 nM (FIG. 4C).
(§3) Serum starved confluent HLF cells were co-incubated in medium containing 10 ng/ml TGFβ1 with or without the indicated concentrations of PI3K inhibitors for 24 hours. Cells were harvested and lysed for Western blot analysis. Following sodium dodecyl sulphate polyacrylamide gel electrophoresis and blocking, membranes were incubated with antibodies to detect pSMAD2 Ser465/467 (#3101, Cell Signalling Technology), or pAkt Ser473 (#4060, Cell signalling Technology), and signals were visualized with ECL Western Blot Detection Reagents (GE Healthcare). […]

HLF = HLF contraction of a collagen gel; type: cell-based, human; settings: 100 nM
Description: Data were analyzed using one-way ANOVA, followed by post-hoc Tukey test (n=3; *p<0.01).
as §2

IPF fibroblasts = assay: Molecular crowding assay for collagen in IPF fibroblasts; type: cell-based, human; settings: 100 nM, 2 h, then inhibitor-free media with TGFβ1
Description: FIG. 7E and FIG. 7F show assay of collagen biosynthesis (green channel) using a molecular crowding assay (0.1% DMSO vehicle was constant for all experimental conditions). IPF fibroblasts were treated with 100 nM omipalisib, PI3Ki1 or FAPL-PI3Ki1for 2 hours, after which the media were removed and the fibroblasts were further stimulated for 48 h with media containing TGFβ1 (10 ng/mL). Cell counts were obtained from DAPI counterstaining (blue channel). Data were analyzed using one-way ANOVA, followed by post-hoc Tukey test (n=3; *p.-(0.05).
Next, the FAP-targeted PI-3 kinase inhibitors were tested to determine if they might suppress collagen formation by human IPF fibroblasts. For this purpose, TGFβ1-stimulated IPF lung fibroblasts were stimulated for 2 h with omipalisib, PI3Ki1, or FAPL-PI3Ki1, followed by replacement of the inhibitor-containing media with inhibitor-free growth media and continued incubation for 46 h. […] Importantly, this concurrent suppression of both mTOR and PI3K activity should be very beneficial to the desired therapy, since collagen synthesis associated with pathogenic fibrosis can be induced by both pathways.
Confluent IPF fibroblasts (4000 cells/well) were cultured in 96-well plates in DMEM containing 0.4% fetal calf serum, ascorbic acid (100 μM), and mixed Ficoll 70 and Ficoll 400 as molecular crowding agents. […]

HLF cells = assay: Caspase 3 and 7 activities in HLF cells (drug-induced apoptosis); type: cell-based
Description: The experiments in panels A-E have been reproduced three times, each with three independent samples, n=3).
as §2

PI3K [3] = assay: Western blot of Akt phosphorylation in TGFβ1-stimulated HLF cells; type: cell-based, human; set-up: inhibition of Akt phosphorylation on serine 473: dose or concentration left out as unconfirmed
Description: as §1, §2, §3

SMILES	pAkt after short incubation and replacement with inhibitor-free media (PI3K [1])	IC50 [2] [nM]	inhibition of TGFβ1 stimulated fibroblast contraction of a collagen gel (HLF)	biosynthesis of collagen (IPF fibroblasts)	caspase activity (HLF cells; concentrations below 100 nM)	fibroblast apoptosis (caspase 3 and 7 activation) (HLF cells; increasing concentrations)	inhibition of Akt phosphorylation on serine 473 (PI3K [3])	IC50 (PI3K [3]; Homo sapiens, HLF, TGFβ1 10 ng/mL, 24 h, read-out: IC50 of inhibition of phosphorylation of Akt) [nM]
COc1ncc(-c2ccc3nccc(-c4ccc(CO)nc4)c3c2)cc1NS(=O)(=O)c1ccc(F)cc1F [PI3Ki1]	no diminution in pAkt expression	~10	reduce TGFβ1 induced collagen remodeling	only moderately inhibited	weak induction of caspase activity	only promoted fibroblast cell death at concentrations much higher than those required to prevent collagen synthesis	nearly complete inhibition	~1
COc1ncc(-c2ccc3nccc(-c4ccnnc4)c3c2)cc1NS(=O)(=O)c1ccc(F)cc1F [omipalisib, reference compound]				only moderately inhibited				

From patent US20230158153A1, “PI3 KINASE INHIBITORS AND USES THEREOF” (Purdue Research Foundation, priority 2020, published 2023)
